Columns and labels:
[1] = tested on: recombinant NL4-3 virus (nef section replaced with Renilla luciferase gene) in MT-2 cells; assay: HIV cell culture assay (antiviral activity, luciferase readout in infected MT-2 cells); assay type: cell-based; conditions: NL43
Description: HIV cell culture assay—MT-2 cells, 293T cells and the proviral DNA clone of NL4-3 virus were obtained from the NIH AIDS Research and Reference Reagent Program. MT-2 cells were propagated in RPMI 1640 media supplemented with 10% heat inactivated fetal bovine serum (FBS), […]. The 293T cells were propagated in DMEM media supplemented with 10% heat inactivated FBS, […]. A recombinant NL4-3 proviral clone, in which a section of the nef gene was replaced with the Renilla luciferase gene, was used to make the reference virus used in these studies. The recombinant virus was prepared through transfection of the recombinant NL4-3 proviral clone into 293T cells using Transit-293 Transfection Reagent from Minis Bio LLC (Madison, Wis.). Supernatent was harvested after 2-3 days and the amount of virus present was titered in MT-2 cells using luciferase enzyme activity as a marker by measuring luciferase enzyme activity. Luciferase was quantitated using the EnduRen Live Cell Substrate from Promega (Madison, Wis.). Antiviral activities of compounds toward the recombinant virus were quantified by measuring luciferase activity in MT-2 cells infected for 4-5 days with the recombinant virus in the presence of serial dilutions of the compound.
The 50% effective concentration (EC5o) was calculated by using the exponential form of the median effect equation where (Fa)=1/[1+(ED50/drug conc.)m] (Johnson Va., Byington R T. Infectivity Assay. In Techniques in HIV Research. ed. Aldovini A, Walker B D. 71-76. New York: Stockton Press.1990). The 50% inhibitory concentration (EC50) was calculated by using the exponential form of the median effect equation where percent inhibition=1/[1 +(EC50/drug concentration)m], where m is a parameter that reflects the slope of the concentration-response curve.

[2] = Compound cytotoxicity, XTT-based colorimetric assay; assay type: cell-based; conditions: human; uninfected MT2 cells, day 4, XTT
Description: Compound cytotoxicity and the corresponding CC50 values were determined using the same protocol as described in the antiviral assay except that uninfected cells were used. Cytotoxicity was assessed on day 4 in uninfected MT2 cells by using a XTT (2,3-bis[2-Methoxy-4-nitro-5-sulfophenyl]-2H-tetrazolium-5-carboxyanilide inner salt)-based colorimetric assay (Sigma-Aldrich, St Louis, Mo).

Cn1nc(NS(C)(=O)=O)c2c(Cl)ccc(-n3c([C@H](Cc4cc(F)cc(F)c4)NC(=O)Cn4nc(C(F)F)c5c4C(F)(F)[C@@H]4C[C@H]54)nc4cc(CCc5ccccc5)ccc4c3=O)c21 (atropisomer, axis not shown; (P)) [Example 3, N—((S)-1-((3P)-3-(4-chloro-1-methyl-3-(methylsulfonamido)-1H-indazol-7-yl)-4-oxo-7-phenethyl-3,4-dihydroquinazolin-2-yl)-2-(3,5-difluorophenyl)ethyl)-2-((3bS,4aR)-3-(difluoromethyl)-5,5-difluoro-3b,4,4a,5-tetrahydro-1H-cyclopropa[3,4]cyclopenta[1,2-c]pyrazol-1-yl)acetamide]
EC50 [1]: 0.771 nM | CC50 at 4 day [2]: > 1000 nM

CCCCCCCCc1ccc2c(=O)n(-c3ccc(Cl)c4c(NS(C)(=O)=O)nn(C)c34)c([C@H](Cc3cc(F)cc(F)c3)NC(=O)Cn3nc(C(F)F)c4c3C(F)(F)[C@@H]3C[C@H]43)nc2c1 (atropisomer, axis not shown; (P)) [Example 4, N—((S)-1-((3P)-3-(4-chloro-1-methyl-3-(methylsulfonamido)-1H-indazol-7-yl)-7-octyl-4-oxo-3,4-dihydroquinazolin-2-yl)-2-(3,5-difluorophenyl)ethyl)-2-((3bS,4aR)-3-(difluoromethyl)-5,5-difluoro-3b,4,4a, 5-tetrahydro-1H-cyclopropa[3, 4]cyclopenta [1,2-c]pyrazol-1-yl)acetamide]
EC50 [1]: 3.9 nM | CC50 at 4 day [2]: > 1000 nM

Cn1nc(NS(C)(=O)=O)c2c(Cl)ccc(-n3c([C@H](Cc4cc(F)cc(F)c4)NC(=O)Cn4nc(C(F)F)c5c4C(F)(F)[C@@H]4C[C@H]54)nc4cc(Cc5ccccc5)ccc4c3=O)c21 (atropisomer, axis not shown; (P)) [Example 5, N—((S)-1-(7-benzyl-(3P)-3-(4-chloro-1-methyl-3-(methylsulfonamido)-1H-indazol-7-yl)-4-oxo-3,4-dihydroquinazolin-2-yl)-2-(3,5-difluorophenyl)ethyl)-2-((3bS,4aR)-3-(difluoromethyl)-5,5-difluoro-3b,4,4a,5-tetrahydro-1H-cyclopropa[3,4]cyclopenta[1,2-c]pyrazol-1-yl)acetamide]
EC50 [1]: 0.221 nM | CC50 at 4 day [2]: > 1000 nM

Cn1nc(NS(C)(=O)=O)c2c(Cl)ccc(-n3c([C@H](Cc4cc(F)cc(F)c4)NC(=O)Cn4nc(C(F)F)c5c4C(F)(F)[C@@H]4C[C@H]54)nc4cc(C5=CCCCC5)ccc4c3=O)c21 (atropisomer, axis not shown; (P)) [Example 6, N—((S)-1-((3P)-3-(4-chloro-1-methyl-3-(methylsulfonamido)-1H-indazol-7-yl)-7-(cyclohex-1-en-1-yl)-4-oxo-3,4-dihydroquinazolin-2-yl)-2-(3,5-difluorophenyl)ethyl)-2-((3bS,4aR)-3-(difluoromethyl)-5,5-difluoro-3b,4,4a,5-tetrahydro-1H-cyclopropa[3,4]cyclopenta[1,2-c]pyrazol-1-yl)acetamide]
EC50 [1]: 1.32 nM | CC50 at 4 day [2]: > 1000 nM

CC(C)=C(C)c1ccc2c(=O)n(-c3ccc(Cl)c4c(NS(C)(=O)=O)nn(C)c34)c([C@H](Cc3cc(F)cc(F)c3)NC(=O)Cn3nc(C(F)F)c4c3C(F)(F)[C@@H]3C[C@H]43)nc2c1 (atropisomer, axis not shown; (P)) [Example 7, N—((S)-1-((3P)-3-(4-chloro-1-methyl-3-(methylsulfonamido)-1H-indazol-7-yl)-7-(3-methylbut-2-en-2-yl)-4-oxo-3,4-dihydroquinazolin-2-yl)-2-(3,5-difluorophenyl)ethyl)-2-((3bS,4aR)-3-(difluoromethyl)-5,5-difluoro-3b,4,4a,5-tetrahydro-1H-cyclopropa[3,4]cyclopenta[1,2-c]pyrazol-1-yl)acetamide]
EC50 [1]: 0.386 nM | CC50 at 4 day [2]: > 1000 nM

Cn1nc(NS(C)(=O)=O)c2c(Cl)ccc(-n3c([C@H](Cc4cc(F)cc(F)c4)NC(=O)Cn4nc(C(F)F)c5c4C(F)(F)[C@@H]4C[C@H]54)nc4cc(C5=CCCC5)ccc4c3=O)c21 (atropisomer, axis not shown; (P)) [Example 8, N—((S)-1-((3P)-3-(4-chloro-1-methyl-3-(methylsulfonamido)-1H-indazol-7-yl)-7-(cyclopent-1-en-1-yl)-4-oxo-3,4-dihydroquinazolin-2-yl)-2-(3,5-difluorophenyl)ethyl)-2-((3bS,4aR)-3-(difluoromethyl)-5,5-difluoro-3b,4,4a,5-tetrahydro-1H-cyclopropa[3,4]cyclopenta[1,2-c]pyrazol-1-yl)acetamide]
EC50 [1]: 0.392 nM | CC50 at 4 day [2]: > 1000 nM

Cn1nc(NS(C)(=O)=O)c2c(Cl)ccc(-n3c([C@H](Cc4cc(F)cc(F)c4)NC(=O)Cn4nc(C(F)F)c5c4C(F)(F)[C@@H]4C[C@H]54)nc4cc(C5=CCOCC5)ccc4c3=O)c21 (atropisomer, axis not shown; (P)) [Example 9, N—((S)-1-((3P)-3-(4-chloro-1-methyl-3-(methylsulfonamido)-1H-indazol-7-yl)-7-(3,6-dihydro-2H-pyran-4-yl)-4-oxo-3,4-dihydroquinazolin-2-yl)-2-(3,5-difluorophenyl)ethyl)-2-((3bS,4aR)-3-(difluoromethyl)-5,5-difluoro-3b,4,4a,5-tetrahydro-1H-cyclopropa[3,4]cyclopenta[1,2-c]pyrazol-1-yl)acetamide]
EC50 [1]: 0.064 nM | CC50 at 4 day [2]: > 1000 nM

Cn1nc(NS(C)(=O)=O)c2c(Cl)ccc(-n3c([C@H](Cc4cc(F)cc(F)c4)NC(=O)Cn4nc(C(F)F)c5c4C(F)(F)[C@@H]4C[C@H]54)nc4cc(C5CCOCC5)ccc4c3=O)c21 (atropisomer, axis not shown; (P)) [Example 11, N—((S)-1-((3P)-3-(4-chloro-1-methyl-3-(methylsulfonamido)-1H-indazol-7-yl)-4-oxo-7-(tetrahydro-2H-pyran-4-yl)-3,4-dihydroquinazolin-2-yl)-2-(3,5-difluorophenyl)ethyl)-2-((3bS,4aR)-3-(difluoromethyl)-5,5-difluoro-3b,4,4a,5-tetrahydro-1H-cyclopropa[3,4]cyclopenta[1,2-c]pyrazol-1-yl)acetamide]
EC50 [1]: 0.046 nM | CC50 at 4 day [2]: > 1000 nM

Cn1nc(NS(C)(=O)=O)c2c(Cl)ccc(-n3c([C@H](Cc4cc(F)cc(F)c4)NC(=O)Cn4nc(C(F)F)c5c4C(F)(F)[C@@H]4C[C@H]54)nc4cc(CC5CC5)ccc4c3=O)c21 (atropisomer, axis not shown; (P)) [Example 12, N—((S)-1-((3P)-3-(4-chloro-1-methyl-3-(methylsulfonamido)-1H-indazol-7-yl)-7-(cyclopropylmethyl)-4-oxo-3,4-dihydroquinazolin-2-yl)-2-(3,5-difluorophenyl)ethyl)-2-((3bS,4aR)-3-(difluoromethyl)-5,5-difluoro-3b,4,4a,5-tetrahydro-1H-cyclopropal3,41cyclopenta[1,2-c]pyrazol-1-yl)acetamide]
EC50 [1]: 0.142 nM | CC50 at 4 day [2]: > 1000 nM

CN1CC=C(c2ccc3c(=O)n(-c4ccc(Cl)c5c(NS(C)(=O)=O)nn(C)c45)c([C@H](Cc4cc(F)cc(F)c4)NC(=O)Cn4nc(C(F)F)c5c4C(F)(F)[C@@H]4C[C@H]54)nc3c2)CC1 (atropisomer, axis not shown; (P)) [Example 13]
EC50 [1]: 0.098 nM | CC50 at 4 day [2]: > 1000 nM

CN1CCC(c2ccc3c(=O)n(-c4ccc(Cl)c5c(NS(C)(=O)=O)nn(C)c45)c([C@H](Cc4cc(F)cc(F)c4)NC(=O)Cn4nc(C(F)F)c5c4C(F)(F)[C@@H]4C[C@H]54)nc3c2)CC1 (atropisomer, axis not shown; (P)) [Example 14, N—((S)-1-((3P)-3-(4-chloro-1-methyl-3-(methylsulfonamido)-1H-indazol-7-yl)-7-(1-methylpiperidin-4-yl)-4-oxo-3,4-dihydroquinazolin-2-yl)-2-(3,5-difluorophenyl)ethyl)-2-((3bS,4aR)-3-(difluoromethyl)-5,5-difluoro-3b,4,4a,5-tetrahydro-1H-cyclopropa[3,4]cyclopenta[1,2-c]pyrazol-1-yl)acetamide]
EC50 [1]: 0.23 nM | CC50 at 4 day [2]: > 500 nM

CC(C)CCC(F)(F)c1ccc2c(=O)n(-c3ccc(Cl)c4c(NS(C)(=O)=O)nn(C)c34)c([C@H](Cc3cc(F)cc(F)c3)NC(=O)Cn3nc(C(F)F)c4c3C(F)(F)[C@@H]3C[C@H]43)nc2c1 (atropisomer, axis not shown; (P)) [Example 23, N—((S)-1-((3P)-3-(4-chloro-1-methyl-3-(methylsulfonamido)-1H-indazol-7-yl)-7-(1,1-difluoro-4-methylpentyl)-4-oxo-3,4-dihydroquinazolin-2-yl)-2-(3,5-difluorophenyl)ethyl)-2-((3bS,4aR)-3-(difluoromethyl)-5,5-difluoro-3b,4,4a,5-tetrahydro-1H-cyclopropa[3,4]cyclopenta[1,2-c]pyrazol-1-yl)acetamide]
EC50 [1]: 4.4 nM
